Results from PMC10384010, “Chromatographic Data in Statistical Analysis of BBB Permeability Indices” (Membranes, 2023).
Like-named read-outs stand apart in the source and are kept apart here.

How the values were obtained:
[1] = Normal-phase TLC on silica gel 60 F254 (Rf); assay type: physicochemical; settings: water:methanol:acetonitrile 60:20:20, ammonium acetate pH 7.4
Protocol: The purity of the isolated substances was checked by TLC chromatography and densitometric scanning.
APIs were subjected to chromatographic in column (HPLC) and thin layer (TLC) formats. TLC chromatography was carried out on 20 cm × 20 cm glass plates by Merck, covered with silica gel and the addition of a fluorescent indicator. Merck TLC silica gel 60 F254 was used for the normal phase (NP). In the reverse phase (RP), RP-2 silanized plates were used (Merck TLC Silica gel 60 RP-2 F254, silanized). The mobile phase was buffered with ammonium acetate to pH 7.4 (LACH-NER, ammonium acetate).
Plates, after developing the chromatograms, were scanned using a densitometer (Desaga CD 60) with an analytical wavelength selected individually for drugs. The values of Rf (molecular descriptors: NP, RP) were determined.

[2] = Reversed-phase TLC on RP-2 silanized plates (Rf); assay type: physicochemical; settings: silica gel 60 RP-2 F254 silanized; water:methanol:acetonitrile 60:20:20, ammonium acetate pH 7.4
[3] = HPLC on IAM (immobilized artificial membrane) column, retention factor; assay type: physicochemical; settings: IAM.PC.DD.2 column; for k(IAM) retention factor: 10 mM phosphate buffer pH 7.4:acetonitrile 80:20; for logkIAM: logarithm of retention factor, phosphate buffer pH 7.4:acetonitrile 80:20
Protocol: Chromatographic data also came from an experiment with a HPLC IAM (immobilized artificial membrane) column (Regis Technologies Inc.: IAM.PC.DD.2, 10 µm; 4.6 mm × 10 mm). The column contains a standard membrane consisting of a phospholipid bilayer. Organic solvents (acetonitrile and methanol) and water (J.T. Baker HPLC) were used in HPLC. Sigma phosphate buffered saline tablets were used to prepare the phosphate buffer. The mobile phase was a mixture of 10 mM phosphate buffer at pH 7.4 and acetonitrile in the ratio of 80:20 (v/v) [35]. The mobile phase flow was set at 0.5 mL/min; detection was carried out with a UV–Vis detector. The obtained values of the retention factor (k IAM) were transformed into a logarithmic form and entered into the statistical analysis (descriptor: log k IAM).

[4] = entering the CNS / not entering the CNS; ref Drugbank [36]; cited from earlier work
[5] = cited from earlier work
[6] = plasma protein binding, given as fraction, ref Drugbank

Structure (SMILES)	NP (Rf from NP TLC plate) [1]	RP (Rf from RP-2 TLC plate) [2]	k(IAM) retention factor [3]	logkIAM [3]	CNS+/- [4]	PB (protein binding) [5, 6]	PB (protein binding) ([5]; plasma)
CN(C)C(=N)N=C(N)N [metformin]	0.21	0.78	0.34	-0.47	1	–	–
CN1CCC[C@@H]1Cc1c[nH]c2ccc(CCS(=O)(=O)c3ccccc3)cc12 [eletriptan]	–	–	–	–	1	–	–
O[C@@H]1CO[C@H]2[C@@H]1OC[C@@H]2O [isosorbide]	0.26	0.54	0.21	-0.68	1	–	–
CCOc1ccc(/C=C2\NCCc3cc(OCC)c(OCC)cc32)cc1OCC [drotaverine]	0.61	0.55	31.24	1.49	1	–	–
CCCCCOC(=O)Nc1nc(=O)n([C@@H]2O[C@H](C)[C@@H](O)[C@H]2O)cc1F [capecitabine]	0.92	0.9	1.11	0.04	1	–	–
CCCc1nn(C)c2c(=O)[nH]c(-c3cc(S(=O)(=O)N4CCN(C)CC4)ccc3OCC)nc12 [sildenafil]	0.69	0.77	14.26	1.15	1	–	–
OC(CNCC(O)C1CCc2cc(F)ccc2O1)C1CCc2cc(F)ccc2O1 (centres unmarked) [nebivolol]	0.75	0.4	–	–	1	–	–
CN1CCN(C(=O)OC2c3nccnc3C(=O)N2c2ccc(Cl)cn2)CC1 (centres unmarked) [zopiclone]	0.96	0.84	0.91	-0.04	–	0.45	–
CCN(Cc1ccncc1)C(=O)C(CO)c1ccccc1 (centres unmarked) [tropicamid]	0.85	0.83	1.06	0.03	–	–	0.45
OC(CCN1CCCCC1)(c1ccccc1)C1CC2C=CC1C2 (centres unmarked) [biperiden]	0.68	0.87	41.47	1.62	–	0.6	–
C[C@]12CC[C@@H]3c4ccc(OC(=O)c5ccccc5)cc4CC[C@H]3[C@@H]1CC[C@@H]2O [estradiol benzoate]	0.97	0.63	6.92	0.84	–	0.95	–
COCCc1ccc(OCC(O)CNC(C)C)cc1 (centres unmarked) [metoprolol]	0.48	0.28	4.32	0.64	0	–	–
CCOCCn1c(C2CCN(CCc3ccc(C(C)(C)C(=O)O)cc3)CC2)nc2ccccc21 [bilastine]	0.46	0.76	0.55	-0.26	–	0.87	–
COc1cc(Cc2cnc(N)nc2N)cc(OC)c1OC [trimethoprim]	0.57	–	–	–	1	–	–
CN(C)CCc1c[nH]c2ccc(C[C@H]3COC(=O)N3)cc12 [zolmitriptane]	0.31	0.86	3.30	0.52	–	–	0.25
CCCc1nc2c(C)cc(-c3nc4ccccc4n3C)cc2n1Cc1ccc(-c2ccccc2C(=O)O)cc1 [telmisartan]	0.9	0.87	4.68	0.67	1	–	–

Structure (SMILES)	NP (Rf from NP TLC plate) [1]	RP (Rf from RP-2 TLC plate) [2]	k(IAM) retention factor [3]	logkIAM [3]	CNS+/- [4]	PB (protein binding) [5, 6]	PB (protein binding) ([5]; plasma)
CC(C)NCC(O)c1ccc(NS(C)(=O)=O)cc1 (centres unmarked) [sotalol]	0.48	0.85	1.35	0.13	1	–	–
CNCCc1ccccn1 [betahistine]	0.17	0.31	0.90	-0.05	1	–	–
CC(C)C[C@H]1C(=O)N2CCC[C@H]2[C@]2(O)O[C@](NC(=O)[C@@H]3C=C4c5cccc6[nH]c(Br)c(c56)C[C@H]4N(C)C3)(C(C)C)C(=O)N12 [bromocriptine]	0.95	0.69	12.69	1.10	–	0.93	–
CCN1CCCC1CNC(=O)c1cc(S(N)(=O)=O)ccc1OC (centres unmarked) [sulpiride]	0.27	0.85	1.66	0.22	–	0.4	–
CC(=O)[C@H]1CC[C@H]2[C@@H]3CCC4=CC(=O)CC[C@]4(C)[C@H]3CC[C@]12C [progesterone]	0.96	0.71	34.99	1.54	–	0.975	–
CCN(CC)C(=O)Nc1ccc(OCC(O)CNC(C)(C)C)c(C(C)=O)c1 (centres unmarked) [celiprolol]	0.45	0.75	5.87	0.77	–	0.275	–
CC[C@@H](CO)NCCN[C@@H](CC)CO [ethambutol]	0.19	0.97	–	–	0	–	–
C[C@]12CC[C@@H]3c4ccc(O)cc4CC[C@H]3[C@@H]1CCC2=O [estrone]	0.99	0.79	29.40	1.47	–	0.95	–
CNC(=C[N+](=O)[O-])NCCSCc1ccc(CN(C)C)o1 [ranitidine]	0.24	0.81	0.67	-0.17	0	–	–
CC(=O)S[C@@H]1CC2=CC(=O)CC[C@]2(C)[C@H]2CC[C@@]3(C)[C@@H](CC[C@@]34CCC(=O)O4)[C@H]12 [spironolactone]	0.98	0.78	13.38	1.13	–	0.9	–
CC[C@H]1OC(=O)[C@H](C)[C@@H](O[C@H]2C[C@@](C)(OC)[C@@H](O)[C@H](C)O2)[C@H](C)[C@@H](O[C@@H]2O[C@H](C)C[C@H](N(C)C)[C@H]2O)[C@](C)(OC)C[C@@H](C)C(=O)[C@H](C)[C@@H](O)[C@]1(C)O [clarithromycin]	0.99	0.83	0.10	-1.02	0	–	–
CC1(C)S[C@@H]2[C@H](NC(=O)[C@H](N)c3ccc(O)cc3)C(=O)N2[C@H]1C(=O)O [amoxilcillin]	0.68	0.99	0.05	-1.32	–	–	0.2
CC(=O)CC(c1ccc([N+](=O)[O-])cc1)c1c(O)c2ccccc2oc1=O (centres unmarked) [acenocumarol]	0.99	–	0.53	-0.27	1	–	–
O=C(O)C1N=C(c2ccccc2)c2cc(Cl)ccc2NC1=O (centres unmarked) [clorazepate]	0.94	0.81	4.88	0.69	–	0.975	–
CN(C)CCOC(c1ccccc1)c1ccccc1 [diphenhydramin]	0.42	0.58	3.66	0.56	–	–	0.985
